Laboratory results published in US9000154B2, “Rho kinase inhibitors” (Boehringer Ingelheim International GmbH, priority 2010, dated 2015).

target: T1, ROCKII (1-543) (Homo sapiens, UniProt O75116); assay: IMAP Assay (fluorescence polarization, FAM S6 peptide); format: biochemical; set-up: 3 nM ROCKII (1-543) diluted in kinase reaction buffer; conditions: IMAP FP, 1 nM ROCKII (1-543), 100 μM ATP; read-out: Assay 2 IC50
Procedure: This assay is performed using FAM S6 substrate peptide (Catalogue #R7184) and IMAP FP Screening Express Kit detection reagents from Molecular Devices (Sunnyvale, Calif.) in IMAP kinase reaction buffer (Tris-HCl, pH 7.2, 10 mM MgCl2, 0.05% NaN3, 0.1% phosphate-free BSA) containing 1 mM DTT. Test compounds dissolved in neat DMSO at 0.3 mg/mL are serially diluted 1 to 3 for concentration response in 100% DMSO. The DMSO serial dilutions are further diluted 33.33-fold in kinase reaction buffer, and 10 μL of this buffer dilution is transferred to Corning black 96-well half area NBS plates for a final top concentration of 3 μg/mL in 1% DMSO. 10 μL aliquot of 3 nM ROCKII (1-543) diluted in kinase reaction buffer is added to each assay well for a final concentration of 1 nM kinase. 10 μL of a mixture of 600 nM FAM S6 peptide and 300 μM ATP diluted in kinase reaction buffer is added to each well for a final concentration of 200 nM peptide and 100 μM ATP. The kinase reaction mixture is incubated for 60 minutes at room temperature. Positive controls are reaction mixtures containing no test compound and negative controls (blanks) are reaction mixtures containing no kinase. The kinase reaction is stopped by addition of 60 μL IMAP progressive binding reagent (Catalog #R7284) diluted 400-fold in 1× Binding buffer A. After 30 min of incubation at room temperature, the plates are read for fluorescence polarization on Analyst Plate Reader using Ex 485 nm, Em 530 nm, and FL 505 dichroic mirror. The mP signals are converted to percent of control (POC) values using the formula: POC=100*(Signal−BCTRL)÷(PCTRL−BCTRL)
Where Signal is the test well signal, BCTRL is the average of background (negative control) well signals on the plate and PCTRL is the average of positive control well signals on the plate. For the concentration-responsive compounds, POC as a function of test compound concentration is fitted to a 4-parameter logistic equation of the form: Y=A+(B−A)/[1+(x/C)D]
Where A, B, C, and D are fitted parameters (parameter B is fixed at zero POC), and x and y are the independent and dependent variables, respectively. The IC50 is determined as the inflection point parameter, C.
Target sequence in this assay (O75116 1-543, species assumed): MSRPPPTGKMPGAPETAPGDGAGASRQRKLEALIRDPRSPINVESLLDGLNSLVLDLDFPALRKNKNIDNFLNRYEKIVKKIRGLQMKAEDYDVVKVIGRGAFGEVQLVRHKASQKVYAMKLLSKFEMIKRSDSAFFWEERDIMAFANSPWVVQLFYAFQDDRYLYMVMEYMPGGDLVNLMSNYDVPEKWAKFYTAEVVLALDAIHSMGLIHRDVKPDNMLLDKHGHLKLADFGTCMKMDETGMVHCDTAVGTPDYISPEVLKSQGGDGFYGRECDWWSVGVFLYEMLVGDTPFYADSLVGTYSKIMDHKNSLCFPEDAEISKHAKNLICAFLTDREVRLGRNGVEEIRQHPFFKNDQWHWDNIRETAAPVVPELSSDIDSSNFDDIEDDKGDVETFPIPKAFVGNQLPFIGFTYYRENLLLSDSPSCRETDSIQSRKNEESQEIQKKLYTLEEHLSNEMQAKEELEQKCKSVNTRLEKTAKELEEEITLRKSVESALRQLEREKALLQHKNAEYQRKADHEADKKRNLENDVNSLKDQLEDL

Compound	IC50 [pM]
CN(CCC(F)(F)F)[C@H]1CCc2nc(NC(=O)c3cccc(Cn4cc(-c5ccc(C#N)cc5)nn4)c3)sc2C1 [Compound 31, 3-[4-(4-Cyano-phenyl)-[1,2,3]triazol-1-ylmethyl]-N-{(S)-6-[methyl-(3,3,3-trifluoro-propyl)-amino]-4,5,6,7-tetrahydro-benzothiazol-2-yl}-benzamide]	3100
COCCN(C)[C@H]1CCc2nc(NC(=O)c3cccc(Cn4cc(-c5ccc(C#N)cc5)cn4)c3)sc2C1 [Compound 46, 3-[4-(4-Cyano-phenyl)-pyrazol-1-ylmethyl]-N-{(S)-6-[(2-methoxy-ethyl)-methyl-amino]-4,5,6,7-tetrahydro-benzothiazol-2-yl}-benzamide]	340
CN(C)[C@H]1CCc2nc(NC(=O)c3cccc(Cn4cc(-c5ccc(C#N)cc5)cn4)c3)sc2C1 [Compound 5, 3-[4-(4-Cyano-phenyl)-pyrazol-1-ylmethyl]-N—((S)-6-dimethylamino-4,5,6,7-tetrahydro-benzothiazol-2-yl)-benzamide]	200
CN(C)[C@H]1CCc2nc(NC(=O)c3cccc(Cn4cc(-c5ccc(C#N)cc5)nn4)c3)sc2C1 [Compound 4, 3-[4-(4-Cyano-phenyl)-[1,2,3]triazol-1-ylmethyl]-N—((S)-6-dimethylamino-4,5,6,7-tetrahydro-benzothiazol-2-yl)-benzamide]	490
N#CCCN[C@H]1CCc2nc(NC(=O)c3cccc(Cn4cc(-c5ccc(C#N)cc5)nn4)c3)sc2C1 [Compound 13, N—[(S)-6-(2-Cyano-ethylamino)-4,5,6,7-tetrahydro-benzothiazol-2-yl]-3-[4-(4-cyano-phenyl)-[1,2,3]triazol-1-ylmethyl]-benzamide]	1000
N#CCCN[C@H]1CCc2nc(NC(=O)c3cccc(Cn4cc(-c5ccc(C#N)cc5)cn4)c3)sc2C1 [Compound 33, N—[(S)-6-(2-Cyano-ethylamino)-4,5,6,7-tetrahydro-benzothiazol-2-yl]-3-[4-(4-cyano-phenyl)-pyrazol-1-ylmethyl]-benzamide]	350
N#Cc1ccc(-c2cnn(Cc3cccc(C(=O)Nc4nc5c(s4)C[C@@H](N)CC5)c3)c2)cc1 [Compound 28, N—((S)-6-Amino-4,5,6,7-tetrahydro-benzothiazol-2-yl)-3-[4-(4-cyano-phenyl)-pyrazol-1-ylmethyl]-benzamide]	350
N#Cc1ccc(-c2cn(Cc3cccc(C(=O)Nc4nc5c(s4)C[C@@H](N)CC5)c3)nn2)cc1 [Compound 29, N—((S)-6-Amino-4,5,6,7-tetrahydro-benzothiazol-2-yl)-3-[4-(4-cyano-henyl)-[1,2,3]triazol-1-ylmethyl]-benzamide]	730
COCCN[C@H]1CCc2nc(NC(=O)c3cccc(Cn4cc(-c5ccc(C#N)cc5)nn4)c3)sc2C1 [Compound 48, 3-[4-(4-Cyano-phenyl)-[1,2,3]triazol-1-ylmethyl]-N—[(S)-6-(2-methoxy-ethylamino)-4,5,6,7-tetrahydro-benzothiazol-2-yl]-benzamide]	320
N#Cc1ccc(-c2cnn(Cc3cccc(C(=O)Nc4nc5c(s4)C[C@@H](NCCC(F)(F)F)CC5)c3)c2)cc1 [Compound 20, 3-[4-(4-Cyano-phenyl)-pyrazol-1-ylmethyl]-N—[(S)-6-(3,3,3-trifluoro-propylamino)-4,5,6,7-tetrahydro-benzothiazol-2-yl]-benzamide]	470
COCCN(C)C1CCc2nc(NC(=O)c3cccc(Cn4cc(-c5ccc(C#N)cc5)cn4)c3)sc2C1 (stereo not drawn) [Compound 14, 3-[4-(4-Cyano-phenyl)-pyrazol-1-ylmethyl]-N-{6-[(2-methoxy-ethyl)-methyl-amino]-4,5,6,7-tetrahydro-benzothiazol-2-yl}-benzamide]	410

More lines, now with the values ahead:

IC50 [pM]	Compound
650	CN1CCN([C@H]2CCc3nc(NC(=O)c4cccc(Cn5cc(-c6ccc(C#N)cc6)cn5)c4)sc3C2)CC1 [Compound 25, 3-[4-(4-Cyano-phenyl)-pyrazol-1-ylmethyl]-N—[(S)-6-(4-methyl-piperazin-1-yl)-4,5,6,7-tetrahydro-benzothiazol-2-yl]-benzamide]
400	N#Cc1ccc(-c2cnn(Cc3cccc(C(=O)Nc4nc5c(s4)C[C@@H](N4CCOCC4)CC5)c3)c2)cc1 [Compound 7, 3-[4-(4-Cyano-phenyl)-pyrazol-1-ylmethyl]-N—((S)-6-morpholin-4-yl-4,5,6,7-tetrahydro-benzothiazol-2-yl)-benzamide]
1000	N#Cc1ccc(-c2cn(Cc3cccc(C(=O)Nc4nc5c(s4)C[C@@H](N4CCOCC4)CC5)c3)nn2)cc1 [Compound 8, 3-[4-(4-Cyano-phenyl)-[1,2,3]triazol-1-ylmethyl]-N—((S)-6-morpholin-4-yl-4,5,6,7-tetrahydro-benzothiazol-2-yl)-benzamide]
580	CN1CCN(C2CCc3nc(NC(=O)c4cccc(Cn5cc(-c6ccc(C#N)cc6)cn5)c4)sc3C2)CC1 (stereo not drawn) [Compound 11, 3-[4-(4-Cyano-phenyl)-pyrazol-1-ylmethyl]-N-[6-(4-methyl-piperazin-1-yl)-4,5,6,7-tetrahydro-benzothiazol-2-yl]-benzamide]
1300	CN1CCN(C2CCc3nc(NC(=O)c4cccc(Cn5cc(-c6ccc(C#N)cc6)nn5)c4)sc3C2)CC1 (stereo not drawn) [Compound 23, 3-[4-(4-Cyano-phenyl)-[1,2,3]triazol-1-ylmethyl]-N-[6-(4-methyl-piperazin-1-yl)-4,5,6,7-tetrahydro-benzothiazol-2-yl]-benzamide]

target: T1, ROCKII (1-543); assay: Luciferin-Luciferase Assay (PKLight ATP detection); format: biochemical; set-up: ROCKII (1-543) (62,408 Da) was diluted in assay buffer; conditions: 7.5 nM ROCKII (1-543), 750 nM ATP
Procedure: 1. Luciferin-Luciferase Assay
The activity of ROCKII (1-543) kinase was measured utilizing Cambrex PKLight ATP Detection Reagent, a homogeneous assay technology using luciferin-luciferase to quantify residual ATP. The assay was performed in 384-well low-volume, white, non-binding surface microtiter plates (Corning). The assay buffer was 25 mM HEPES, pH 7.5, 10 mM MgCl2, 50 mM KCl, 0.2% BSA, 0.01% CHAPS, 100 μM Na3VO4 and 0.5 mM DTT. Test compounds, dissolved in neat DMSO at 500 μg/mL, were serially diluted for dose response for a final starting concentration of 3 μg/mL in 1% DMSO of assay buffer. ROCKII (1-543) (62,408 Da) was diluted in assay buffer to a final concentration of 7.5 nM in a total volume of 15 μL. Positive controls were reaction mixtures containing no test compound; negative controls (blanks) were reaction mixtures containing no kinase. After 15 minutes of pre-incubation of the test compounds with the kinase, a mixture of ATP and peptide substrate (AKRRRLSSLRA) in assay buffer was added to each well for a final concentration of 750 nM ATP and 500 nM peptide, respectively. After 90 minutes of incubation of the kinase reaction at 28° C. temperature, 10 μL of PKLight ATP Detection Reagent (warmed to room temperature previously) was added to each well. The assay plate was incubated at room temperature for additional 15 minutes and then read on an Analyst in luminescence mode. Dose-response experiments for each of the test compounds were conducted in quadruplet. IC50 values of test compounds represent 50% response of the positive control from the dose-response curve.
Target sequence in this assay (O75116 1-543): as the sequence (O75116 1-543, species assumed) above

Compound	IC50 [pM]
COCCN[C@@H]1CCc2nc(NC(=O)c3cccc(Cn4cc(-c5ccc(C#N)cc5)cn4)c3)sc2C1 [Compound 57, 3-[4-(4-Cyano-phenyl)-pyrazol-1-ylmethyl]-N—[(R)-6-(2-methoxy-ethylamino)-4,5,6,7-tetrahydro-benzothiazol-2-yl]-benzamide]	1900
N#Cc1ccc(-c2cnn(Cc3cccc(C(=O)Nc4nc5c(s4)CC(NCC(F)F)CC5)c3)c2)cc1 (stereo not drawn) [Compound 51, 3-[4-(4-Cyano-phenyl)-pyrazol-1-ylmethyl]-N-[6-(2,2-difluoro-ethylamino)-4,5,6,7-tetrahydro-benzothiazol-2-yl]-benzamide]	1800
N#Cc1ccc(-c2cn(Cc3cccc(C(=O)Nc4nc5c(s4)C[C@H](N)CC5)c3)nn2)cc1 [Compound 58, N—((R)-6-Amino-4,5,6,7-tetrahydro-benzothiazol-2-yl)-3-[4-(4-cyano-phenyl)-[1,2,3]triazol-1-ylmethyl]-benzamide]	2200

More lines, now with the values ahead:

IC50 [pM]	Compound
8500	N#Cc1ccc(-c2cnn(Cc3cccc(C(=O)Nc4nc5c(s4)CC(N4CCC(F)(F)C4)CC5)c3)c2)cc1 (stereo not drawn) [Compound 73, 3-[4-(4-Cyano-phenyl)-pyrazol-1-ylmethyl]-N-[6-(3,3-difluoro-pyrrolidin-1-yl)-4,5,6,7-tetrahydro-benzothiazol-2-yl]-benzamide]
9900	N#Cc1cccc(-c2ccnc(Cc3cccc(C(=O)Nc4nc5c(s4)C[C@@H](N4CCOCC4)CC5)c3)n2)c1 [Compound 36, 3-[4-(3-Cyano-phenyl)-pyrimidin-2-ylmethyl]-N—((S)-6-morpholin-4-yl-4,5,6,7-tetrahydro-benzothiazol-2-yl)-benzamide]
